From ChEMBL document CHEMBL6103599, “Design of Potent Menin-KMT2A Interaction Inhibitors with Improved In Vitro ADME Properties and Reduced hERG Affinity” (ACS Med Chem Lett, 2025) come the findings set out here.

In general, IC50 refers to the midpoint of a concentration-inhibition curve. For orientation: half-life means how long it takes for the measured level to halve. Low readings indicate rapid decline, high ones slow decline. As usually defined, the Cmax is the maximum level reached in the sampled fluid or tissue. The term clearance denotes the rate of elimination divided by the concentration. The Papp A→B is the apparent permeability from the apical to the basolateral side of a cell layer. For orientation: AUC(0-inf) means the area under the concentration-time curve extrapolated to infinity. Read a low AUC(0-inf) as less exposure. The bioavailability is the share of a dose that reaches the circulation, judged against a reference dose that is usually intravenous. A lower bioavailability goes with little systemic uptake.

Data set [1] is described as follows: Inhibition of His6-tagged MEN1 458-551 deletion A5T mutant (2 to 583 residues)/MLL (unknown origin) transfected in Escherichia coli BL21 (DE3) protein-protein interaction by TR-FRET assay. Set-up: species or system Homo sapiens. A general note: Time-resolved FRET reads energy transfer from a long-lived donor to a nearby acceptor.
Data set [2] is described as follows: Half life in male CD-1 mouse at 1 mg/kg, iv measured after 8 hrs by LC-MS/MS analysis. The data set is classed as ADME, organism-based. Particulars: in vivo.
Data set [3] has as its target Voltage-gated inwardly rectifying potassium channel KCNH2 (Homo sapiens, UniProt Q12809). The data set can be described thus: Inhibition of hERG expressed in CHO cells. It is filed as toxicity, cell-based. For orientation: hERG is a cardiac potassium channel; its block is linked to QT prolongation.
The nature of data set [4]: Cmax in male CD-1 mouse at 30 mg/kg, po measured after 8 hrs by LC-MS/MS analysis. It is filed as ADME, organism-based. Particulars: in vivo.
Data set [5] is described as follows: Metabolic stability in human hepatocytes assessed as clearance by LC-MS analysis. It is filed as ADME, cell-based, Hepatocyte. The conditions noted are these: read-out: CLH.
The nature of data set [6]: Hepatic extraction ratio in male CD-1 mouse at 1 mg/kg, iv measured after 8 hrs by LC-MS/MS analysis. The data set is classed as ADME, organism-based. The conditions noted are these: in vivo, read-out: ERH.
Data set [7] in a line: Clearance in male CD-1 mouse at 1 mg/kg, iv measured after 8 hrs by LC-MS/MS analysis. It is filed as ADME, organism-based. Particulars: in vivo.
A further data set has as its target Cytochrome P450 3A4 (Homo sapiens, UniProt P08684). The data set can be described thus: Inhibition of CYP3A4 (unknown origin) using midazolam as substrate. The data set is classed as ADME.
The nature of data set [8]: Apparent permeability across apical to basolateral side in MDR1 knockout dog MDCKII cells incubated for 2 hrs by LC-MS/MS analysis. The data set is classed as ADME, cell-based, Canis lupus familiaris, MDCK-II. Particulars: MDCK.
A short description of data set [9]: AUCinfinity in male CD-1 mouse at 1 mg/kg, iv measured after 8 hrs by LC-MS/MS analysis. The data set is classed as ADME, organism-based. Particulars: in vivo.
Data set [10] in a line: Volume of distribution at steady state in male CD-1 mouse at 1 mg/kg, iv measured after 8 hrs by LC-MS/MS analysis. The data set is classed as ADME, organism-based. The conditions noted are these: in vivo, read-out: Vdss.
The nature of data set [11]: Oral bioavailability in male CD-1 mouse at 30 mg/kg measured after 8 hrs by LC-MS/MS analysis. The conditions noted are these: in vivo. The data set is classed as ADME, organism-based.
The nature of data set [12]: Drug excretion in male Sprague-Dawley rat urine at 3 mg/kg, iv measured after 8 hrs by LC-MS/MS analysis. The data set is classed as ADME, organism-based. The conditions noted are these: read-out: Drug excretion.
A further data set has as its system MV4-11. The data set can be described thus: Antiproliferative activity against human MV4-11 cells assessed as cell growth inhibition measured after 7 days by CellTiter-Glo assay. It is filed as functional, cell-based. The conditions noted are these: MV4-11, 168 h. Background: ATP-based viability assays read luminescence as a measure of living cells.

A value given as a limit tells only on which side of the number the result lay.

Chain of Voltage-gated inwardly rectifying potassium channel KCNH2 (Q12809 whole entry): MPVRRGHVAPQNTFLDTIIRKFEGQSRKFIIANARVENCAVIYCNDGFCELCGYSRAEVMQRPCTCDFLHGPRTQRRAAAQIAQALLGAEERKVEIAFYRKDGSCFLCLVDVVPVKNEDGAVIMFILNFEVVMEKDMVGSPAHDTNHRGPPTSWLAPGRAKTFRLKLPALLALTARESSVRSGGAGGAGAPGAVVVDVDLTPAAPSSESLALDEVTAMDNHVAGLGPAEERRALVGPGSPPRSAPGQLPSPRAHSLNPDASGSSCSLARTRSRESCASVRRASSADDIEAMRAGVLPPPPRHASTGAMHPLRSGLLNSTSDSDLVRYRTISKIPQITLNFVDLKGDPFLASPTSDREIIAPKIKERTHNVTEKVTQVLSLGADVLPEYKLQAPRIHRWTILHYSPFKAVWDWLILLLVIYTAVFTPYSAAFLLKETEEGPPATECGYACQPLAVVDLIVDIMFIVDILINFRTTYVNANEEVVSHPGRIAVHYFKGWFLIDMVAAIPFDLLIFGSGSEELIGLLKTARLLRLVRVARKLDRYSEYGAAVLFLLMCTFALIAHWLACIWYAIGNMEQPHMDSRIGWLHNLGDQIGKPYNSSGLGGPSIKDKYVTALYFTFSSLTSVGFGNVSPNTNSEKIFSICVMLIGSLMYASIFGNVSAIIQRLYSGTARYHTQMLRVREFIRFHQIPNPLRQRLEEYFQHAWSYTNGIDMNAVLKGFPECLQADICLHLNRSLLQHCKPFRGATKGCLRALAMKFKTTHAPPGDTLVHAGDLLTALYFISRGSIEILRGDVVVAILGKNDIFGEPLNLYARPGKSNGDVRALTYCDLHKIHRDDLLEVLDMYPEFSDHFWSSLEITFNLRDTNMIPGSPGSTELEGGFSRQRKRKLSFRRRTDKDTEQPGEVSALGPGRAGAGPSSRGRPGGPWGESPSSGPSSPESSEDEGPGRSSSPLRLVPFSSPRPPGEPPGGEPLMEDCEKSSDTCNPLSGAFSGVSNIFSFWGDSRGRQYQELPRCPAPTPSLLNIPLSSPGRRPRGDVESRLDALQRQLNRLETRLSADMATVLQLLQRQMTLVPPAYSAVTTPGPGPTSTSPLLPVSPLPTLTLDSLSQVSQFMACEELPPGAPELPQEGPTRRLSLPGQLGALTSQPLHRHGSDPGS
Chain of Cytochrome P450 3A4 (P08684 whole entry): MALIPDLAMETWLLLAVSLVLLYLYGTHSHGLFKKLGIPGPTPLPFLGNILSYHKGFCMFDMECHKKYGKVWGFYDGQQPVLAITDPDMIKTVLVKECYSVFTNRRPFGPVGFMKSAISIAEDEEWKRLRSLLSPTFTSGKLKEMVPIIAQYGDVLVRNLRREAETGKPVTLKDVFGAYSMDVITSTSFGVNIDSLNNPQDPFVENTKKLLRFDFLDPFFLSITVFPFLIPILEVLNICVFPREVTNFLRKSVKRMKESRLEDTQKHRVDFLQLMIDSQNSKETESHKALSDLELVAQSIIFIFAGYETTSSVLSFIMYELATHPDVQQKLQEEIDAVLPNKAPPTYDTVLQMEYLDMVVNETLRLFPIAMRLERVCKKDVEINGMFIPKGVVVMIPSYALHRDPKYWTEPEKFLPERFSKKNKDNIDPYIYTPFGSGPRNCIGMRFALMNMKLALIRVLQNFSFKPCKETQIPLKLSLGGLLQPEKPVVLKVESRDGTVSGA

Turning to `CC1(CN2CCC3(CC2)CN(c2ncnnc2Oc2ccc(F)cc2C(=O)N2C4CCC2COC4)C3)CC1`, the IC50 was 8 nM in [1], 65000 nM in data set [3], > 50000 nM on Cytochrome P450 3A4 and 74 nM in the data set with MV4-11. Also, the half-life in data set [2] was 1.68 h. In [4], this molecule displayed a Cmax of 5000 ng/mL. Further, the CLint scaled in [5] turned out to be 5 mL/min/kg. Further, in data set [6], the hepatic extraction ratio at 8 h was 0.541. In data set [7], the clearance turned out to be 48.7 mL/min/kg. The Papp A→B at 2 h in data set [8] is 3 ×10⁻⁶ cm/s. In data set [9], this molecule registered an AUC(0-inf) of 342 ng·h/mL. Further, the Vd in data set [10] was 4.34 L/kg. In [11], this molecule displayed a bioavailability of 74%. Besides, in [12], the dose excreted at 8 h was 22%.
